From patent US6677310B1, “Ring-expanded nucleosides and nucleotides” (Nabi, priority 1999, dated 2004)

Assays:
Assay type in all cases: biochemical
[1] = biological target: T1, adenosine deaminase from calf intestinal mucosa (Bos taurus, UniProt P56658); test: Adenosine deaminase assay (Example 17); details: Lineweaver-Burk plots; with and without preincubation
T1 construct: against adenosine deaminase from calf intestinal mucosa; from tissue; host or cells: calf intestinal mucosa
Description: Inhibition of adenosine deaminase (ADA) by Compound 17-1 and Compound 17-2 (see FIG. 13 for chemical structures; note that structure 1 FIG. 13 is the same as that in figure except that it is written in an anti-conformation in the former) was investigated in vitro against adenosine deaminase from calf intestinal mucosa in a 50 mM phosphate buffer (pH=7.4) at 25° C., by spectro-photometrically monitoring the rate of hydrolysis of substrate adenosine at 265 nm. Stock solutions of the substrate, enzyme, and inhibitors were prepared using a 50 mM phosphate buffer (pH 7.4). The enzyme kinetics was followed by measuring the change in optical density (decrease in absorbance) per minute of the substrate adenosine. By keeping the concentration of the inhibitor constant, and by varying the substrate concentration, a set of kinetic data was obtained. Additional sets of data were generated using different concentrations of the inhibitor. […]
(a) pre-incubation of the enzyme with the inhibitor; here the enzyme (ADA 10 μL) and inhibitor were preincubated for 10 min in a calculated amount of phosphate buffer (50 mM, pH 7.5 ) at 25° C. and the reaction was initiated by the addition of substrate, adenosine, and (b) without preincubation; here the reaction was started by addition of ADA (10 μL) to a mixture of adenosine and inhibitor in the phosphate buffer at 25° C. […]

[2] = biological target: T2, adenosine deaminase (Type IV) from bovine spleen (Bos taurus, UniProt P56658); test: Inhibition of adenosine deaminase (Example 9); details: Lineweaver-Burk plot
T2 construct: adenosine deaminase (Type IV) from bovine spleen (a suspension in 3.2 M (NH4)2SO4, pH 6); from tissue; host or cells: bovine spleen
T2 sequence (P56658 whole entry): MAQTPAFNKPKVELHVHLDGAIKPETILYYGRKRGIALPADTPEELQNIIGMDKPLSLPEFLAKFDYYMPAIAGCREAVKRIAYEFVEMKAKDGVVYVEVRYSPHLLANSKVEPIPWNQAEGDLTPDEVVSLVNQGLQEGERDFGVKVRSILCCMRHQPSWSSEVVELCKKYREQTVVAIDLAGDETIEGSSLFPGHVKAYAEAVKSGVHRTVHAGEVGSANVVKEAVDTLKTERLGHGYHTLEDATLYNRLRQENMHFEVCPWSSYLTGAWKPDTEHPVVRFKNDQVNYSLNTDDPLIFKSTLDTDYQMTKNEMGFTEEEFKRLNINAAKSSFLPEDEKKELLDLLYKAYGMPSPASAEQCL
Description: The concentration of inhibitor, the title compound, used for the present study ranged from 4.6×10^−5 to 9.2×10^−5 M. The enzyme concentration used for each of the assays was 0.0235 units/mL. As computed by the Lineweaver-Burk plot.

[3] = biological target: T3, guanine deaminase (guanase) from rabbit liver (Oryctolagus cuniculus, UniProt G1T386); test: Guanine deaminase assay (Example 17); details: Lineweaver-Burk plots
T3 construct: from tissue; host or cells: rabbit liver
T3 sequence (G1T386 1-454): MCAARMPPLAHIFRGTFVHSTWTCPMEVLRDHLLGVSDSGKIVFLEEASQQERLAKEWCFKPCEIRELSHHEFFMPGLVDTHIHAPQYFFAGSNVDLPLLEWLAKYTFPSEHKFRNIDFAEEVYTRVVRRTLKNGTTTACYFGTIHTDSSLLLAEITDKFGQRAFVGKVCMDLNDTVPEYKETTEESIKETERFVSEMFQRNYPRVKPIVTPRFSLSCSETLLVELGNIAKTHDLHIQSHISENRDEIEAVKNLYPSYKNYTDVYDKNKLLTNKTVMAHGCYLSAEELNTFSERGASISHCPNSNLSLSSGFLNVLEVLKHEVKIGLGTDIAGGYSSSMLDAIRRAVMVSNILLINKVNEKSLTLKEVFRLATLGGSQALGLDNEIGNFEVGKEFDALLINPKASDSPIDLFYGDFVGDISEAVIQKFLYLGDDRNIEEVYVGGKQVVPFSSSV
Description: Stock solutions of the substrate, enzyme, and inhibitors were prepared using a 50 mM Tris-HCl buffer (pH 7.4). The enzyme kinetics was followed by measuring the change in optical density (decrease in absorbance) per minute of the substrate guanine. By keeping the concentration of the inhibitor constant, and by varying the substrate concentration, a set of kinetic data was obtained. Additional sets of data were generated using different concentrations of the inhibitor. The substrate concentration in each assay ranged 6-20 μM; a total of six different concentrations were employed. The inhibitor concentration used in each assay was 30 or 40 μM. The amount of enzyme used in each assay was 0.0076 unit. The Ki for inhibition assays was computed from Lineweaver-Burk plots. The Lineweaver-Burk plot (1/V vs 1/[S]), as well as the linear regression analysis of kinetic data, were performed using the program Quattro Pro (version 6.01) for Windows.™.

[4] = biological target: T4, bacteriophage T7 RNA polymerase (Escherichia phage T7, UniProt P00573); test: Transcription catalyzed by T7 RNA polymerase
T4 construct: purchased Promega P2075
T4 sequence (P00573 whole entry): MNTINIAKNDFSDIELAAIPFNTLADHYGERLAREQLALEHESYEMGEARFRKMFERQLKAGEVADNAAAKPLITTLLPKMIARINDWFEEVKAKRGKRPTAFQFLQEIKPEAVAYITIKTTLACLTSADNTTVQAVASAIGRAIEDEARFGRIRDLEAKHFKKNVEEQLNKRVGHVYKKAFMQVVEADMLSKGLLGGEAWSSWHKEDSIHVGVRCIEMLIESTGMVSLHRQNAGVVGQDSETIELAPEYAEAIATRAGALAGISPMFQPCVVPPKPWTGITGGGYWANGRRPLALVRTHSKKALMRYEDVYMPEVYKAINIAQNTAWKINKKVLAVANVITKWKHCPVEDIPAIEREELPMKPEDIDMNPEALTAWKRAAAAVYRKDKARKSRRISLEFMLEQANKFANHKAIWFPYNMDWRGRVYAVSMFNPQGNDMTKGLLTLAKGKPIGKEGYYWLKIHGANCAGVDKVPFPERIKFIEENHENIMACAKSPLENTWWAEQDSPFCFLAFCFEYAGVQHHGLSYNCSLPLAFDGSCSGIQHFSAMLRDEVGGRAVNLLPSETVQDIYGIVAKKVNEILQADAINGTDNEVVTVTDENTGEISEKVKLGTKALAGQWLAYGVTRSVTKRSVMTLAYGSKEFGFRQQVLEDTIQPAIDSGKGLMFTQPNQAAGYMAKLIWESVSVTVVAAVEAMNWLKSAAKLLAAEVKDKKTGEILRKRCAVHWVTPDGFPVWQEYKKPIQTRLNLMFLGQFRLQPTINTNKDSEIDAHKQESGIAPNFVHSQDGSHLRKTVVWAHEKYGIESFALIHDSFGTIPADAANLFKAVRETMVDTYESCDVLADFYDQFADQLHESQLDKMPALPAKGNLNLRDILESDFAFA
Description: To show whether the “fat” nucleotide Compound 15-2 (FNTP) is incorporated into RNA during transcription, experiments were performed using bacteriophage T7 RNA polymerase (RNAP) and a synthetic 42-mer DNA template shown below that is annealed to a 17-nucleotide promoter specific for T7 RNAP. This promoter-template enables the synthesis of 25-mer RNA, and the purine analogue may be incorporated in positions +1, +11, +13, +15, +21, +22, and +23.
Transcription reaction conditions were optimized with the use of ^32P CTP for labeling RNA transcripts. Polyacrylimide gel electrophoresis of the transcription products obtained from the 42-mer template, using 1 mM each of four natural NTPs, reveled a 25-mer RNA as the major product, together with shorter and longer labeled transcripts (FIG. 9, lane 1). The additional bands observed are consistent with the known ability of T7 RNA polymerase to add non-coded residues at the 3′-end of transcripts. (Milligan, J. F., et al., Nuc. Acids Res., 15, 8783-8798, 1987) With the use of 1 mM nucleotide Compound 15-2 (FNTP), the yield of transcription was reduced (lane 2).
With the use of a synthetic 37-mer DNA template, annealed to a 17-nucleotide promoter for T7 RNAP as shown below, a 20 nucleotide-long transcript RNA was obtained when the reaction mixture contained all four NTPs in appropriate concentrations, along with many shorter “abortive” fragments. (Milligan, J. F., et al., Nuc. Acids Res., 15, 8783-8798, 1987). For the reaction with modified nucleotide, typically
the concentration of the appropriate natural nucleotide was reduced. […] (Milligan, J. F., et al., Methods in Enzymol., 180, 51-63, 1989.) In the present experiments, the synthesis of RNA was compared under standard conditions (using 4 NTPs in 0.2 mM concentration each) with the synthesis of RNA by using an additional “fat” nucleoside triphosphate Compound 15-2 (FNTP) in varying (0.05-10 mM) concentrations. The reaction mixtures were incubated at 37° C. for 2 hours, and the products were denatured in a buffer containing urea. The products were separated by 20% polyacrylamide-urea gel electrophoresis and visualized by autoradiography.
Transcription samples (total volume 10 μL contained: 40 mM Tris-HCl pH 8.1 with 6 mM MgCl2, 5 mM dithiothreitol (DTT), 1 mM spermidine, 0.01% Triton-X 100, 50 μg/mL bovine serum albumin, 250 nM synthetic DNA template with a promotor for T7 RNAP, 4 units of T7 RNA polymerase, and 0.2 mM ribonucleoside triphosphates. A single α^32P-labeled NTP was added for labeling (typicallly 1 μL of 10 mCi/mL ). Inhibition assays were monitored with varying concentrations (0.05-10 mM) of nucleotide Compound 15-2. Polyacrylamide gel (20%) electrophoresis was performed on slab gels (18 cm×16 cm, or 35 cm×44 cm) containing 8M urea. […]

T1 sequence (P56658 whole entry): as the sequence (P56658 whole entry) above

SMILES: N=c1nc(N)c2ncn([C@@H]3O[C@H](CO)[C@@H](O)[C@H]3O)c2c(N)n1 [Compound 14-2, 4,8-Diamino-6H-6-imino-1-β-D-ribofuranosylimidazo[4,5-e][1,3]diazepine]
- mode of inhibition of adenosine deaminase [1]: competitive inhibitor
- mode of inhibition of adenosine deaminase [2]: competitive inhibitor
- inhibition of guanine deaminase (guanase), mode [3]: inactive
- incorporation into RNA during transcription (substrate for T7 polymerase) ([4]; 42-mer DNA template): neither incorporation nor inhibition
- inhibition of T7 RNA polymerase-catalyzed transcription ([4]; 42-mer and 37-mer DNA templates, 0.05-10 mM): failed to cause inhibition of the transcription
